Assay results taken from patent US8519007B2, “Use certain diterpene compounds in the treatment of androgen receptor-associated diseases” (Academia Sinica, priority 2008, dated 2013).

Columns and labels:
22Rv1 tumors = experiment: 22Rv1 xenograft in athymic nude mice, oral HDHS; type: in vivo
Procedure: 22Rv1 cells were derived from a castration-relapsed tumor of human PCa origin that represents a clinical limitation for hormonal therapy (Nagabhushan M, et al., Cancer Res 1996;56:3042-6; Sramkoski R M, et al., In Vitro Cell Dev Biol Anim 1999; 35:403-9). The potential of HDHS to inhibit growth of PCa in vivo was tested in athymic nude mice with 22Rv1 tumors. […]. All animal work was done in accordance with the protocol approved by the Institutional Animal Care and Use Committee, Academia Sinica. Aliquots of 1×10^6 22Rv1 cells were suspended in 1:1 PBS mixed with Matrigel (BD Biosciences, San Jose, Calif.) and were subcutaneously inoculated into the right flank of each mouse. Once the tumor grew to palpable size one week after 22Rv1 cells were implanted, mice were stochastically assigned to three groups (n=7) that received vehicle control or HDHS at different dosages (0.5 and 2.5 mg/kg/day), by gavage in 0.2 mL of PBS containing 10% DMSO. Tumors were measured twice per week using calipers and their volumes calculated using a standard formula, as follows: width2×length×0.5. Body weight was measured weekly. Mice received 24 doses, and 24 h after the last dose they were sacrificed to harvest plasma and tumors. A portion of each tumor was snap-frozen in liquid nitrogen and stored at −80° C. until needed for western blot analysis of relevant biomarkers, and the remainder was fixed in 10% formalin overnight.
Immunohistochemistry was conducted to examine the in vivo effects of HDHS on proliferation and apoptosis in tumor xenografts. The paraffin-embedded tumor sections (4 μm thickness) were heat immobilized, deparaffinized using xylene and rehydrated in a graded series of ethanol with a final wash in distilled water. Antigen retrieval was done in TARGET RETRIEVAL SOLUTION (DakoCytomation, Glostrup, Denmark) in a DECLOAKING CHAMBER (Biocare Medical, Concord, Calif.) followed by quenching of endogenous peroxidase activity. Sections were then incubated with specific primary antibodies, including mouse monoclonal anti-Ki-67 (DakoCytomation) and rabbit polyclonal anti-AR (Santa Cruz) at 4° C. overnight in a humidity chamber. An ENVISION system (DakoCytomation) was used to detect the reaction products. In situ detection of apoptotic cells was carried out using terminal deoxynucleotidyl transferase-mediated nick-end labeling (TUNEL assay) reaction mixture according to the manufacturer's protocol (Chemicon).

LNCaP cells = experiment: Western blot of G1-associated cyclins, CDKs, CDK inhibitors and Rb phosphorylation; type: cell-based, human; conditions: 24 h
Description: (§1) The molecular mechanisms for HDHS-induced G0-G1 cell cycle arrest were further assessed by the expression of the cyclins and CDKs that operate in the G1 phase in PCa cells (Malumbres M et al., Nat Rev Cancer 2001; 1:222-31; Massague J. Nature 2004; 432:298-306).

PC-3 cells [1] = experiment: as above; type: cell-based, human; conditions: PC-3, compared with LNCaP
Description: as §1

22Rv1 cells = experiment: Apoptosis by nucleosome release (cytoplasmic DNA fragmentation); type: cell-based, human; conditions: 22Rv1, 5-10 μM, 24 h
Procedure: A, Apoptosis of cytoplasmic DNA fragmentation in different cell lines treated with vehicle or indicated concentrations of HDHS for 24 h. Difference between the indicated pair of treatments was tested for statistic significance as marked. *, P≦0.05; **, P≦0.01.
In light of the increase of sub-G1 populations by HDHS, apoptosis in treated cells was further analyzed via measurement of nucleosome release in PCa cells.

PC-3 cells [2] = experiment: Western blot of caspases and PARP; type: cell-based, human; conditions: PC-3, 10 μM, 24 h
Procedure: During apoptosis, various caspases are activated which are involved in the cleavage and […] a range of cellular substrates, including […] the DNA repair enzyme PARP (Herceg Z et al., Mol Cell Biol 1999;10:5124-33; Okada H et al., Nat Rev Cancer 2004; 4:592-603). In the presence of 10 μM HDHS, PARP cleavage was observed, and at the same time caspase-3 and -7 were activated by proteolytic cleavage (FIG. 4B, lane 5). […] In contrast, activation of caspase-3 and -7 or cleavage of PARP were not detected in PC-3 cells treated with 10 μM HDHS for 24 h (FIG. 4B, lane 10). Tumor suppressor p53 is a control for the G1 checkpoint and cell apoptosis, and LNCaP cells express wild-type p53 (van Bokhoven A et al., Prostate 2003; 57:205-25).

[3] = 0.5 and 2.5 mg/kg/day oral, 24 days

SMILES: CC(C)c1cc2c(cc1O)[C@@]1(C)CCCC(C)(C)C1=C(O)C2=O [Compound 2, 6,12-dihydroxyabieta-5,8,11,13-tetraen-7-one]
- Ki-67 positive proliferative tumor cells (22Rv1 tumors; [3]): decreased the number of cells positively stained for Ki-67
- TUNEL positive apoptotic tumor cells (22Rv1 tumors; [3]): increase of apoptotic tumor cells
- AR expression in tumor cells (immunohistochemistry) (22Rv1 tumors; HDHS-treated 22Rv1 tumors): prevalent decrease of AR expression
- tumor growth of 22Rv1 xenograft (22Rv1 tumors; nude mice, 0.5 and 2.5 mg/kg/day by gavage, 24 doses): significantly retarded tumor growth
- symptoms of toxicity (loss of appetite, decreased locomotion, signs of illness) (22Rv1 tumors; nude mice, 24-day regimen, oral): did not exhibit any symptoms of toxicity
- body weight of tested mice (22Rv1 tumors; up to 2.5 mg/kg per day, oral): not influenced
- protein expression of CDK inhibitors p21 and p27 (LNCaP cells; 10 μM): increased
- cyclins D1 and E protein (LNCaP cells): concentration-dependent decrease
- phosphorylation of Rb (LNCaP cells): markedly decreased
- protein levels of CDK4, CDK6, and CDK2 (LNCaP cells): decreased
- changes in cyclins, CDKs, p21, p27 and Rb phosphorylation (PC-3 cells [1]): at a lower magnitude than in LNCaP cells
- apoptosis (nucleosome release) (22Rv1 cells): significantly induced
- activation of caspase-3 and -7 or cleavage of PARP (PC-3 cells [2]): not detected
